The record followed here is patent publication US5877210A, “Phosphotyrosine phosphatase inhibitors or phosphotyrosine kinase activators for controlling cellular proliferation” (priority 1995, dated 1999).

For series [1], the system named is peripheral blood lymphocytes. As to the kind of experiment: Leukocyte counts in mice after pV(phen). The series is classed as in vivo, BALB/C mice. The following applies: one dose i.p.; for Absolute Counts: Eosinophil / Absolute Counts: Lymphocyte / Absolute Counts: Monocyte / Absolute Counts: Neutrophil: blood 24 hr later, individual animals. From the text: BALB/C mice received one dose of pV(phen) i.p. and their blood was examined 24 hr later.

The subject of the next series is P388D. As to the kind of experiment: [3H]thymidine incorporation assay. The note with it: 5 days. The series is classed as cell-based, murine. Here is the method: (§1) The cell lines A20, 70Z-3, L1210, and P388D were used. A20 is a B cell lymphoma cell line; 70Z/3 is a B cell leukemia cell line; L1210 is a T cell leukemia cell line; and P388D is a myeloid leukemia cell line. The cells were grown for 5 days in the presence of pV(phen) and pulsed with [^3 H]-thymidine on day 5. The extent of DNA synthesis was then determined by counting the radioactivity incorporated into the cells, as in Example 5, supra. […] The effects on L1210 cells and P388D cells are particularly noteworthy because these cell lines have been extensively used by the National Cancer Institute to identify anti-cancer drugs.
A general note: Uptake of a labelled nucleoside into DNA is a usual measure of proliferation.

Series [2] concerns 70Z/3 B cell leukemia cell line. As to the kind of experiment: [3H]thymidine incorporation assay. The series is classed as cell-based, murine. The following applies: 702/3, 5 days. Here is the method: as §1
The subject of a further series is L1210. Kind of series: [3H]thymidine incorporation assay. It counts as cell-based, murine. The following applies: 5 days. Here is the method: as §1
Series [3] deals with i.p. implanted P388 murine leukemia. Kind of series: In vivo antitumor test, P388.
Series [4] concerns peripheral blood lymphocytes (PBL). As to the kind of experiment: PBL growth driven by antibody/cytokine stimulation. The series is classed as cell-based, human.
The subject of series [5] is mixed lymphocyte response cultures dependent on CD28 costimulation. Kind of series: Mixed lymphocyte response cultures. It counts as cell-based. The note with it: 0.5 to 5 μM BMLOV. Here is the method:
Mixed lymphocyte response cultures that are dependent on CD28 costimulation were inhibited by over 50% by 0.5 to 5 μM BMLOV (FIG. 8).

For series [6], the system named is Ramos B cells. It counts as cell-based, human. From the text: These effects were synergistic rather than additive in that an approximately 5-fold enhancement in sensitization for the combination treatment was observed relative to expected additive effects based on the use of either treatment alone.
A further series relates to normal tonsillar B cells. Kind of series: Normal tonsillar B cell proliferation. The series is classed as cell-based. From the text: BMLOV can inhibit normal tonsillar B cell proliferation driven by stimulation of CD40 via either anti-CD40 antibody or gp39 ligand plus either anti-CD20 antibody or phorbol 12-myristate 13-acetate (PMA). […] Variations between the individuals from which the tonsils were derived could account for the differences between these experiments.

Series [7] relates to Ramos B cells. As to the kind of experiment: Viability by propidium iodide staining and flow cytometry. The following applies: 25 μM BMLOV, 4 days (FIG. 15B) or 5 d (FIG. 30). It counts as cell-based, human. From the text: The extent to which the T cells were being killed by BMLOV treatment relative to the Ramos B cells was therefore examined. […] The percentage of cells in each quadrant is indicated. The lower right quadrant contains the viable cells.
On the technique in general: A flow cytometer gives signals particle by particle.

For another series, the system named is T cell line CEM. Kind of series: Clonogenic assay in methylcellulose. The following applies: dose as high as 100 μM BMLOV. The series is classed as cell-based, human. The method, then:
The selective cytotoxicity of BMLOV was examined in clonogenic assays. Cells were grown in methylcellulose media and the number of colonies formed after seven days of treatment with various doses of the drug were determined. The clonogenic assays were performed with six replicates for each treatment as described [F. M. Uckun et al., J. Exp. Med. 163:347-368 (1986); F. M. Uckun & J. A. Ledbetter, Proc. Natl. Acad. Sci. USA 85:8603-8607 (1988)). The data is given plus/minus the standard error of the mean.

The test system of series [8] is Ramos B cells. Kind of series: Cell cycle analysis by propidium iodide flow cytometry. It counts as cell-based, human. The method, then: Ramos B cells treated with various concentrations of BMLOV for 16 hours were examined for their DNA content by propidium iodide staining followed by FACScan flow cytometric analysis using the SFIT program.
Cells were fixed, permeabilized and stained for their DNA content with propidium iodide as previously described (D. H. Pluznik et al., "Colony Stimulating Factor (CSF) Controls Proliferation of CSF-Dependent Cells by Acting During the G1 Phase of the Cell Cycle," Proc. Natl. Acad. Sci. USA 81:7451-7455 (1984)). The stained cells were analyzed by flow cytometry on a FACScan (Becton-Dickinson) instrument. The percentage of cells in various stages of the cell cycle was calculated using the CellFIT program.
In FIG. 14, Ramos cells growing in log phase were treated with BMLOV for 48 hr at the indicated concentrations. DNA in the cells was stained with propidium iodide and quantitated by flow cytometry as described previously. The calculated percentage of cells at the stages of the cell cycle is shown. "A" marks apoptotic cells lacking normal amounts of DNA in the 5 μM dose panel.

The test system of the next series is PLCγ2. As to the kind of experiment: PLCγ2 tyrosine phosphorylation in Ramos B cells. The series is classed as cell-based, human. The note with it: 16 h, dose-dependent, no antigen receptor stimulation. Here is the method: Syk is essential for the tyrosine phosphorylation of PLCγ2 that leads to Ca^2+ signaling in B cells following antigen receptor stimulation (M. Takata et al., EMBO J. 13:1341-1349 (1994)). […] In the experiments shown in FIG. 24, Ramos B cells were treated 16 h with the indicated concentrations of BMLOV and then stimulated for 2 min with α-μ. Antibody binding in immunoblots was detected by ECL. […] The extent of tyrosine phosphorylation of PLCγ2 induced by BMLOV was substantially more than that observed following a maximal sIgM stimulation, and no additional tyrosine phosphorylation of PLCγ2 could be induced by sIgM stimulation of BMLOV treated cells.

The subject of another series is pp60^c-src. Kind of series: pp60c-src kinase activity in colon carcinoma cell lines. It counts as cell-based. The following applies: two colon carcinoma cell lines expressing Src; dose-dependent. From the text:
Many colon carcinomas are known to express the Src oncogene product at high levels.

Where “and” joins values, the source holds several entries; their conditions need not be identical. Equal entries are not always repeated. Entries after “also recorded” stand apart in the source; their conditions may differ.

As to `[Na+].[O]=[V-]12([O][O]1)[O][O]2.c1cnc2c(c1)ccc1cccnc12` [pV(phen), sodium (1,10-phenanthroline) oxodiperoxovanadium (V)], the “Absolute Counts: Eosinophil” value in [1] (Dose 1 μM) is 244 and 26; in series [1] (Dose 2 μM), 78 and 81. Also, the “Absolute Counts: Lymphocyte” value in [1] (Dose 1 μM) is 3848 and 1612; in [1] (Dose 2 μM), 1560 and 2511. In addition, the “Absolute Counts: Monocyte” value was 488 and 104 in series [1] (Dose 1 μM); 390 and 0 in series [1] (Dose 2 μM). For the same molecule, the “Absolute Counts: Neutrophil” value in series [1] (Dose 1 μM) is 1525 and 858; in series [1] (Dose 2 μM), 1872 and 5508. In addition, in series [1] (24 hr), the “effect on monocytes, in words” value is listed as “no consistent effect was observed”. In addition, the “number of neutrophils, in words” value in series [1] (24 hr) was “substantially increased”. Besides, the “number of peripheral blood lymphocytes, in words” value in [1] (24 hr) is reported as “markedly reduced”. Moreover, the “[3H]-thymidine radioactivity incorporated” value with P388D (5 μM pV(phen)) was 2513 ± 1424; in the series with P388D (10 μM pV(phen)), 362 ± 60; in series [2] (5 μM pV(phen)), 53 ± 27; in [2] (10 μM pV(phen)), 49 ± 34; with L1210 (5 μM pV(phen)) it was 244 ± 155; in the series with L1210 (10 μM pV(phen)) it was 464 ± 116. In series [3] (Expt. 8457, 8 mg/kg/inj (MTD reached), d.1, ip, 8 mg/kg), the “Max. % T/C” value was < 125% and 105%. Also, the “dose considered to be a MTD” value in series [3] (daily i.p. injections days 1 to 5, Expt. 8459) worked out at 12 mg/kg per injection. Moreover, in series [3] (single i.p. doses, Expt. 8457), the “excessively toxic, i.e. lethal, dose” value was “greater than or equal to 32 mg/kg”.
On to `Cc1occc(=O)c1[O-].Cc1occc(=O)c1[O-].[O]=[V+2]` [BMLOV, Bis(maltolato)oxovanadium (IV)], for which the “PBL growth driven by anti-CD28 antibody plus IL-2” value in series [4] (1 μM BMLOV) is “markedly inhibited”. In [4] (10 μM BMLOV), the “PBL growth driven by anti-CD3 antibody plus anti-CD28 antibody” value is “strongly inhibited”. Also, in series [5], the “inhibition of mixed lymphocyte response” value is “over 50%”. Besides, the “enhancement in sensitization relative to expected additive effects” value in the series on Ramos B cells [6] (combination of BMLOV and radiation) is “approximately 5 fold”. For the same molecule, the “increase in cell death relative to radiation alone” value in the series on Ramos B cells [6] (ramos b cells, 1 µM) stood at 10 fold. Also, the “increase in clonogenic cell death relative to radiation alone” value in the series on Ramos B cells [6] (ramos b cells, 2 µM) is recorded as 50 fold. In addition, the effect on proliferation result with normal tonsillar B cells (first experiment (FIG. 3), 0.1 to 10 μM BMLOV) is “little effect on proliferation”; with normal tonsillar B cells (second experiment (FIG. 4), 5 μM BMLOV), “substantial inhibition of proliferation”; in the series on normal tonsillar B cells (second experiment (FIG. 4), 50 μM BMLOV) it was “completely blocked proliferation”. Further, the “killing by BMLOV, in words” value in the series on Ramos B cells [7] is on record as “substantially more sensitive to killing; also recorded: completely killed”. Moreover, the “inhibition of clonogenic growth” value in the series with T cell line CEM is recorded as “inhibited only moderately”. Moreover, the “proportion of cells in G2/M” value in the series with Ramos B cells [8] (0 to 5 μM BMLOV) is “did not change substantially”. Also, the “proportion of cells in G1” value with Ramos B cells [8] (5 μM BMLOV, control 34%) worked out at 14%. Further, the “proportion of cells in S phase” value in the series with Ramos B cells [8] (5 μM BMLOV, control 56%) was 77%. For the same molecule, in the series with Ramos B cells [8] (16 hours, 0 to 5 μM BMLOV), the “effect on cell cycle distribution, in words” value is listed as “preferentially deplete the proportion of cells in G1 while increasing the proportion in S phase”. In addition, the “tyrosine phosphorylation of PLCγ2” value in the series with PLCγ2 was “strongly induced the tyrosine phosphorylation of PLCγ2”. In the series on pp60^c-src, the pp60c-src activity result is reported as “strongly inhibited”.
